Results: ChEMBL document CHEMBL1201862, “PubChem BioAssay data set” (2004)
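Interpolation was linear, between the two tested concentrations surrounding the appropriate level; five concentrations were tested over 48 hours in 96-well plates. GI50 marks 50% less growth.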 Active and inactive are the calls of the source. Rule as the data show it: active = GI50 up to about 1.1 µM and inactive = higher.

Key:
Experiment in all cases: DTP human tumour cell line panel, 48 h
[1] = system: 786-0
[2] = system: A498
[3] = system: A549
[4] = system: ACHN
[5] = system: BT-549
[6] = system: CAKI-1
[7] = system: CCRF-CEM
[8] = system: COLO 205
[9] = system: DU-145
[10] = system: EKVX
[11] = system: HCC 2998
[12] = system: HCT-116
[13] = system: HCT-15
[14] = system: HL-60
[15] = system: HOP-62
[16] = system: HOP-92
[17] = system: HT-29
[18] = system: Hs-578T
[19] = system: IGROV-1
[20] = system: K562
[21] = system: KM12
[22] = system: LOX IMVI
[23] = system: M14
[24] = system: MCF7
[25] = system: MDA-MB-231
[26] = system: MDA-MB-435
[27] = system: MDA-N
[28] = system: MOLT-4
[29] = system: Malme-3M
[30] = system: NCI-H226
[31] = system: NCI-H23
[32] = system: NCI-H460
[33] = system: NCI-H522
[34] = system: NCI/ADR-RES
[35] = system: OVCAR-3
[36] = system: OVCAR-4
[37] = system: OVCAR-5
[38] = system: OVCAR-8
[39] = system: PC-3
[40] = system: RPMI-8226
[41] = system: SF-268
[42] = system: SF-295
[43] = system: SF-539
[44] = system: SK-MEL-28
[45] = system: SK-MEL-2
[46] = system: SK-MEL-5
[47] = system: SK-OV-3
[48] = system: SN12C
[49] = system: SNB-19
[50] = system: SNB-75
[51] = system: SR
[52] = system: SW-620
[53] = system: T47D
[54] = system: TK-10
[55] = system: U-251
[56] = system: UACC-257
[57] = system: UACC-62
[58] = system: UO-31

**Q.** What does the source list for C=C(C)[C@@H]1CC[C@]2(C)CC[C@]3(C)[C@H](CC[C@@H]4[C@@]5(C)CC[C@H](OC(=O)c6ccccc6)C(C)(C)[C@@H]5CC[C@]43C)[C@@H]12?
**A.** GI50 [1]: > 100 µM (inactive); GI50 [2]: > 100 µM (inactive); GI50 [3]: > 100 µM (inactive); GI50 [4]: > 100 µM (inactive); GI50 [5]: > 100 µM (inactive); GI50 [6]: > 100 µM (inactive); GI50 [7]: > 100 µM (inactive); GI50 [8]: > 100 µM (inactive); GI50 [9]: > 100 µM (inactive); GI50 [10]: > 100 µM (inactive); GI50 [11]: > 100 µM (inactive); GI50 [12]: > 100 µM (inactive); GI50 [13]: > 100 µM; GI50 [14]: > 100 µM (inactive); GI50 [15]: > 100 µM (inactive); GI50 [16]: > 100 µM (inactive); GI50 [17]: > 100 µM (inactive); GI50 [18]: > 100 µM (inactive); GI50 [19]: > 100 µM (inactive); GI50 [20]: > 100 µM (inactive); GI50 [21]: > 100 µM (inactive); GI50 [22]: > 100 µM (inactive); GI50 [23]: > 100 µM (inactive); GI50 [24]: > 100 µM (inactive); GI50 [25]: > 100 µM (inactive); GI50 [26]: > 100 µM (inactive); GI50 [27]: > 100 µM (inactive); GI50 [28]: > 100 µM (inactive); GI50 [29]: > 100 µM (inactive); GI50 [30]: > 100 µM (inactive); GI50 [31]: > 100 µM (inactive); GI50 [32]: > 100 µM (inactive); GI50 [33]: > 100 µM (inactive); GI50 [34]: > 100 µM (inactive); GI50 [35]: > 100 µM (inactive); GI50 [36]: > 100 µM (inactive); GI50 [37]: > 100 µM (inactive); GI50 [38]: > 100 µM (inactive); GI50 [39]: > 100 µM (inactive); GI50 [40]: > 100 µM (inactive); GI50 [41]: > 100 µM (inactive); GI50 [42]: > 100 µM (inactive); GI50 [43]: > 100 µM (inactive); GI50 [44]: > 100 µM (inactive); GI50 [45]: > 100 µM (inactive); GI50 [46]: > 100 µM (inactive); GI50 [47]: > 100 µM (inactive); GI50 [48]: > 100 µM (inactive); GI50 [49]: > 100 µM (inactive); GI50 [50]: 90.8 µM (inactive); GI50 [51]: 48.2 µM (inactive); GI50 [52]: > 100 µM (inactive); GI50 [53]: > 100 µM (inactive); GI50 [54]: > 100 µM (inactive); GI50 [55]: > 100 µM (inactive); GI50 [56]: > 100 µM (inactive); GI50 [57]: > 100 µM (inactive); GI50 [58]: > 100 µM (inactive)

**Q.** C=C(C)C(=O)CC[C@@H](C)[C@H]1[C@@H](OC2OC(CO)C(O)C(O)C2O)C[C@@]2(C)[C@@H]3C[C@H](O)C4C(C)(C)[C@@H](OC5OC(CO)C(O)C(O)C5O)CC[C@@]45C[C@@]35CC[C@]12C (stereo not given in full) was tested. Which GI50 [1] did it give?
**A.** > 100 µM (inactive)

**Q.** And the GI50 [2]?
**A.** > 100 µM (inactive)

**Q.** And the GI50 [3]?
**A.** > 100 µM (inactive)

**Q.** What about the GI50 [4] of the same molecule?
**A.** > 100 µM (inactive)

**Q.** What about the GI50 [5] of the same molecule?
**A.** 36.6 µM (inactive)

**Q.** And the GI50 [6]?
**A.** 66.4 µM (inactive)

**Q.** And the GI50 [7]?
**A.** 64.9 µM (inactive)

**Q.** And the GI50 [8]?
**A.** 92 µM (inactive)

**Q.** What about the GI50 [9] of the same molecule?
**A.** > 100 µM (inactive)

**Q.** And the GI50 [10]?
**A.** > 100 µM (inactive)

**Q.** And the GI50 [11]?
**A.** 47 µM (inactive)

**Q.** And the GI50 [12]?
**A.** > 100 µM (inactive)

**Q.** And the GI50 [13]?
**A.** > 100 µM

**Q.** And the GI50 [14]?
**A.** 19.7 µM (inactive)

**Q.** What about the GI50 [15] of the same molecule?
**A.** > 100 µM (inactive)

**Q.** And the GI50 [16]?
**A.** > 100 µM (inactive)

**Q.** And the GI50 [17]?
**A.** > 100 µM (inactive)

**Q.** What about the GI50 [18] of the same molecule?
**A.** 91 µM (inactive)

**Q.** And the GI50 [19]?
**A.** > 100 µM (inactive)

**Q.** What about the GI50 [20] of the same molecule?
**A.** 90.6 µM (inactive)

**Q.** What about the GI50 [21] of the same molecule?
**A.** > 100 µM (inactive)

**Q.** And the GI50 [22]?
**A.** > 100 µM (inactive)

**Q.** What about the GI50 [23] of the same molecule?
**A.** > 100 µM (inactive)

**Q.** And the GI50 [24]?
**A.** > 100 µM (inactive)

**Q.** And the GI50 [25]?
**A.** > 100 µM (inactive)

**Q.** What about the GI50 [26] of the same molecule?
**A.** 68.9 µM (inactive)

**Q.** What about the GI50 [27] of the same molecule?
**A.** 24.6 µM (inactive)

**Q.** And the GI50 [28]?
**A.** 62.1 µM (inactive)

**Q.** What about the GI50 [29] of the same molecule?
**A.** > 100 µM (inactive)

**Q.** What about the GI50 [31] of the same molecule?
**A.** 87.3 µM (inactive)

**Q.** And the GI50 [32]?
**A.** 45.8 µM (inactive)

**Q.** What about the GI50 [33] of the same molecule?
**A.** 80.4 µM (inactive)

**Q.** And the GI50 [34]?
**A.** > 100 µM (inactive)

**Q.** What about the GI50 [35] of the same molecule?
**A.** > 100 µM (inactive)

**Q.** What about the GI50 [36] of the same molecule?
**A.** > 100 µM (inactive)

**Q.** And the GI50 [37]?
**A.** > 100 µM (inactive)

**Q.** And the GI50 [38]?
**A.** > 100 µM (inactive)

**Q.** And the GI50 [39]?
**A.** > 100 µM (inactive)

**Q.** And the GI50 [40]?
**A.** > 100 µM (inactive)

**Q.** And the GI50 [41]?
**A.** > 100 µM (inactive)

**Q.** And the GI50 [42]?
**A.** 71.6 µM (inactive)

**Q.** And the GI50 [43]?
**A.** 89.9 µM (inactive)

**Q.** And the GI50 [44]?
**A.** > 100 µM (inactive)

**Q.** What about the GI50 [45] of the same molecule?
**A.** > 100 µM (inactive)

**Q.** What about the GI50 [46] of the same molecule?
**A.** 46.6 µM (inactive)

**Q.** What about the GI50 [47] of the same molecule?
**A.** > 100 µM (inactive)

**Q.** And the GI50 [48]?
**A.** 68.1 µM (inactive)

**Q.** What about the GI50 [49] of the same molecule?
**A.** 48.8 µM (inactive)

**Q.** And the GI50 [50]?
**A.** > 100 µM (inactive)

**Q.** What about the GI50 [51] of the same molecule?
**A.** 71.1 µM (inactive)

**Q.** What about the GI50 [52] of the same molecule?
**A.** > 100 µM (inactive)

**Q.** And the GI50 [53]?
**A.** > 100 µM (inactive)

**Q.** What about the GI50 [54] of the same molecule?
**A.** > 100 µM (inactive)

**Q.** What about the GI50 [55] of the same molecule?
**A.** > 100 µM (inactive)

**Q.** And the GI50 [56]?
**A.** > 100 µM (inactive)

**Q.** And the GI50 [57]?
**A.** > 100 µM (inactive)

**Q.** And the GI50 [58]?
**A.** > 100 µM (inactive)
